Patent US20060040884A1, “Antisense oligonucleotides directed to genes regulated by trapoxin-induced HDAC inhibition” (priority 2001, published 2006)
Where “and” joins values, the source holds several entries; their conditions need not be identical. Equal entries are not always repeated. Marks after values point to notes of the source that are not given here. Square brackets hold non-standard residues; d marks the D form. Peptide text beside a SMILES is read from it. ξ: configuration not given here. Aoe(9ξ) = N[C@@H](CCCCCC(=O)C1CO1)C(=O)O; dPip = O=C(O)[C@H]1CCCCN1

System: H1299 cells
Assay: Microarray expression profiling of TPX- vs DMSO-treated H1299 cells (Affymetrix HU6800 and Incyte UniGem V arrays)
Type: cell-based, human
Details: 30 nM vs DMSO
Protocol: Cell Culture and Drug Treatments. […] H1299 cells at 60 to 80% confluence are treated with 30 nM TPX dissolved in dimethyl sulphoxide for a final concentration of 0.1% Me2SO in cell culture medium or 0.1% Me2SO for 0, 6, 12, and 18 h.
Incyte cDNA arrays. H1299 cells are treated with 30 nM TPX dissolved in Me2SO or Me2SO for 0, 6, 12 and 18 h. Final Me2SO concentrations were 0.1% in cell culture medium. Total RNA is extracted using TRIZOL reagent (Life Technologies, Rockville, Md.) and purified using RNAeasy reagents (Qiagen, Valencia Calif.). Poly (A)^+ RNA (mRNA) is prepared from total RNA using Oligotex columns (Qiagen, Valencia, Calif.) and the procedure is repeated twice to minimize contamination with ribosomal RNA. The mRNA concentrations are determined using RiboGreen RNA Quantitation kit (Molecular Probes, Eugene, Oreg.) and equal amounts of mRNA from each sample is used in labeling reactions that are performed by Synteni Division of Incyte Genomics, Inc. (Palo Alto, Calif.). Complementary DNAs are prepared by […] and labeled with Cy3-deoxyuridine triphosphate (Cy3) or Cy5-deoxyuridine triphosphate (Cy5) fluorescent nucleotides. cDNA samples from cells that are treated with Me2SO are labeled with Cy3 and the TPX-treated samples are labeled with Cy5. Replicates were labeled with reversed fluorescent labels to accommodate biases attributable to labeling. The Cy3 and Cy5 samples from each time point are combined and hybridized to UniGem […] arrays (Iyer, V. R., et al., (1999) Science 283, 83-87). This array contains cDNAs that represent approximately 7000 human genes.
Affymetrix oligonucleotide arrays. Total RNA and Poly (A)^+ RNA is isolated from TPX or Me2SO-treated H1299 cells essentially as it was for Incyte cDNA arrays. Total RNA is isolated from p21^waf1-10 cells that are grown in the presence or in the absence of tetracycline for 6, 12 and 48 h. 1st strand cDNA synthesis is performed using Superscript Choice System (Life Technologies) and a T7prFB-t30 primer, 5′-AAACGACGGCACA […]-t30-3′ (SEQ ID NO 1). Biotinylated complementary […] is made using the T7 Megascript system (Ambion, Austin, Tex.), substituting NTP labeling-mix containing biotinylated CTP and UTP. The labeled, purified cDNA is fragmented into <50 bp pieces at 95° C. in MgCl2 buffer to-increase the efficiency of hybridization to 20-mer oligos on the arrays. These labeled fragments are hybridized to HU6800 arrays (Affymetrix, Santa Clara, Calif.) as described previously (Lockhart, D. J., et al., (1996) Nat. Biotechnol. 14, 1675-1680; Alon, U. et al., (1999) Proc. Natl. Acad. Sci. U.S.A. 96, 6745-6750). This array represents approximately 7000 human genes. Briefly, samples are hybridized for 16 h at 45° C. with constant rotation at 60 rpm. The arrays are washed and stained using an Affymetrix fluidics station. The stain included streptavidin-phycoerythrin (10 μg/ml; Molecular Probes, Eugene, Oreg.) and biotinylated goat anti-streptavidin (3 μg/ml; Vector Laboratories, Burlingame, Calif.).
Imaging and Data Analysis. Affymetrix arrays are scanned with a HP argon-ion laser confocal microscope, with a 488 nm […] and detection at 570 nm. Affymetrix fold changes are calculated using GeneChip 3.3 software (Affymetrix). Incyte Pharmaceutical Inc. uses a laser confocal microscope to determine the fluorescence intensities from Incyte cDNA arrays. The fluorescent images (Cy3 and Cy5) from the Incyte cDNA arrays are normalized to total fluorescence from each channel for all genes for labeling efficiency differences and considered the normalized data is used for calculation of the gene expression ratios.

Structure (SMILES): O=C(CCCCC[C@@H]1NC(=O)[C@H]2CCCCN2C(=O)[C@H](Cc2ccccc2)NC(=O)[C@H](Cc2ccccc2)NC1=O)C1CO1 (stereo partly drawn) [TPX, Trapoxin A] (cyclo(FF[dPip][Aoe(9ξ)]))
- Fold change, D85429 Hsp 40 (12 h): 4.8^8 fold and 5.3^8 fold
- Fold change, J03909 γ-IFN-inducible, IP-30 (12 h): 4.7^7 fold and 5.2^8 fold
- Fold change, L03840 Fibroblast growth factor receptor (12 h): 3.2* fold and 4.9^1 fold
- Fold change, L32976 Mixed lineage kinase-3 (12 h): −2.4* fold
- Fold change, M12174 RhoB (12 h): 5.2^8 fold and 4.5^8 fold
- Fold change, M16938 Homeobox C8 (12 h): NC (<2 fold change in expression level (NC))
- Fold change, M55153 Transglutaminase 2 (12 h): NC (<2 fold change in expression level (NC))
- Fold change, M59828 Hsp 70 (12 h): NC (<2 fold change in expression level (NC))
- Fold change, M76125 Tyrosine kinase receptor (TKR) axl (12 h): NC (<2 fold change in expression level (NC))
- Fold change, M80244 Human E16 (12 h): NC (<2 fold change in expression level (NC))
- Fold change, M86406 Actinin (12 h): 2.1 fold and 2.4 fold
- Fold change, NM006603 Stromal antigen 2 (12 h): NC (<2 fold change in expression level (NC))
- Fold change, U03057 Actin-bundling protein (12 h): 2.4^7 fold and 2.0^7 fold
- Fold change, U09578 MAKAP kinase (3 pk) (12 h): NC (<2 fold change in expression level (NC))
- Fold change, U09579 p21waf1 (1st line) (12 h): 10.5^8 fold and 7.0^8 fold
- Fold change, U09579 p21waf1 (2nd line) (12 h): 3.4 fold and 3.6 fold
- Fold change, U09937 Upa receptor (UpaR) (1st line) (12 h): NC (<2 fold change in expression level (NC))
- Fold change, U14750 Connective tissue growth factor (12 h): 5.6 fold and 3.5 fold
- Fold change, U15782 Cleavage stimulation factor 3 (12 h): NC (<2 fold change in expression level (NC))
- Fold change, U25804 Caspase-4 (12 h): NC (<2 fold change in expression level (NC))
- Fold change, U30827 Srp40 (12 h): NC (<2 fold change in expression level (NC))
- Fold change, U31875 Hep27 (12 h): 11.2^8 fold and 12.3^8 fold
- Fold change, U32519 GAP SH3 binding protein (12 h): 8.3^8 fold and 4.3^3 fold
- Fold change, U48795 Cathelicidin antimicrobial peptide (12 h): 8.5 fold
- Fold change, U56833 VBP-1 (12 h): NC (<2 fold change in expression level (NC))
- Fold change, U77413 O-linked-N-acetylglucosamine transferase (12 h): NC (<2 fold change in expression level (NC))
- Fold change, U84214 Defender against cell death 1 (12 h): 2.5 fold and 2.0 fold
- Fold change, X03473 Histone H1 (0) [Chromatin remodeling] (12 h): 12.0^8 fold and 11.9^8 fold
- Fold change, X03473 Histone H1 (0) [Differentiation] (12 h): 12.0^8 fold and 11.9^8 fold
- Fold change, X04429 Plasminogen activator inhibitor 1 (12 h): NC (<2 fold change in expression level (NC))
- Fold change, X16396 NAD-dependent methylene teterahydrofolate dehydrogenase-methylenyltetrahydrofolate cyclohydrolase (12 h): NC (<2 fold change in expression level (NC))
- Fold change, X37547 Inhibitor of apoptisis homolog C (12 h): NC (<2 fold change in expression level (NC))
- Fold change, X53586 Integrin α-6 (12 h): NC (<2 fold change in expression level (NC))
- Fold change, X55740 5′-nucleotidase (12 h): NC (<2 fold change in expression level (NC))
- Fold change, X66029 TKR axl (12 h): NC (<2 fold change in expression level (NC))
- Fold change, X78687 G9 sialidase (12 h): 4.3^8 fold and 4.5^8 fold
- Fold change, A1581499 Apoptosis inhibitor 2 (18 h): NC (<2 fold change in expression level (NC))
- Fold change, AB011146 KIAA0574, similar to an RNA binding protein (18 h): NC (<2 fold change in expression level (NC))
- Fold change, AF012086 RAN-binding protein 2-like (18 h): NC (<2 fold change in expression level (NC))
- Fold change, AF052578 RAN [Small GTP-ases] (18 h): 2.5 fold and 3.3 fold
- Fold change, AF109161 p35srj [Stress] (18 h): 3.4 fold and 3.3 fold
- Fold change, AF109161 p35srj [Transformation and TKRs] (18 h): 3.4 fold and 3.3 fold
- Fold change, AL047358 Insulin-induced gene 1 (18 h): 2.0 fold and 2.9 fold
- Fold change, AL047358 Spermidine/spermine N1-acetyltransferase (18 h): 2.3 fold and 3.4 fold
- Fold change, D31764 Eph1B-like tyrosine kinase receptor (18 h): NC (<2 fold change in expression level (NC))
- Fold change, D50525 TI-227H (18 h): NC (<2 fold change in expression level (NC))
- Fold change, D85429 Hsp 40 (18 h): 17.1^8 fold and 15.6^8 fold
- Fold change, J03909 γ-IFN-inducible, IP-30 (18 h): 17.1^8 fold and 15.6^8 fold
- Fold change, L03840 Fibroblast growth factor receptor (18 h): 3.7 fold and 4.4 fold
- Fold change, M12174 RhoB (18 h): 6.2^8 fold and 6.1^8 fold
- Fold change, M55153 Transglutaminase 2 (18 h): 2.1 fold and 2.6 fold
- Fold change, M58286 TNF Receptor (18 h): NC (<2 fold change in expression level (NC))
- Fold change, M59828 Hsp 70 (18 h): NC (<2 fold change in expression level (NC))
- Fold change, M80899 AHNAK nucleoprotein/desmoykin (18 h): NC (<2 fold change in expression level (NC))
- Fold change, M86406 Actinin (18 h): NC (<2 fold change in expression level (NC))
- Fold change, U03057 Actin-bundling protein (18 h): NC (<2 fold change in expression level (NC))
- Fold change, U09579 p21waf1 (1st line) (18 h): 3.8* fold and 4.0* fold
- Fold change, U09579 p21waf1 (2nd line) (18 h): 2.7 fold and 3.1 fold
- Fold change, U14750 Connective tissue growth factor (18 h): 3.6 fold and 4.5 fold
- Fold change, U19261 Epstein-Barr-induced LMP1 (18 h): NC (<2 fold change in expression level (NC))
- Fold change, U28749 High mobility group phosphoprotein I-C (HMGI-C) (1st line) (18 h): NC (<2 fold change in expression level (NC))
- Fold change, U30827 Srp40 (18 h): NC (<2 fold change in expression level (NC))
- Fold change, U31875 Hep27 (18 h): 7.1^8 fold and 8.3^8 fold
- Fold change, U32519 GAP SH3 binding protein (18 h): 4.6^8 fold and 4.2^8 fold
- Fold change, U48795 Cathelicidin antimicrobial peptide (18 h): NC (<2 fold change in expression level (NC))
- Fold change, U68019 hMAD3 (18 h): NC (<2 fold change in expression level (NC))
- Fold change, U79285 Clone 23828 (18 h): NC (<2 fold change in expression level (NC))
- Fold change, U84214 Defender against cell death 1 (18 h): NC (<2 fold change in expression level (NC))
- Fold change, X03473 Histone H1 (0) [Chromatin remodeling] (18 h): 3.4* fold and 3.6* fold
- Fold change, X03473 Histone H1 (0) [Differentiation] (18 h): 3.4* fold and 3.6* fold
- Fold change, X37546 Inhibitor of apoptisis homolog B (18 h): NC (<2 fold change in expression level (NC))
- Fold change, X78687 G9 sialidase (18 h): 3.3^8 fold and 2.6^8 fold
